Data taken from US20240076297A1, “ADENOSINE A2A AND A2B RECEPTOR DUAL ANTAGONISTS FOR IMMUNO-ONCOLOGY” (Merck Sharp & Dohme LLC, priority 2020, published 2024).

Molecular target: human A2A adenosine receptor (Homo sapiens (Human), UniProt P29274)
Test: A2A binding affinity using radioligand binding, Method (A)
Conditions: Method (A): filtration radioligand binding, [3H] SCH58261, membranes expressing human A2A
Excerpt: Method (A) describes the procedure used to measure A2A binding affinity using radioligand binding. Method (B) describes the procedure used to measure A2A binding affinity using SPA technology. The method used to measure A2B binding affinity is also described below. The method used to determine the A2A IC50 value reported for each compound in the table is indicated next to the reported value. The A2B IC50 value measured using the A2B binding affinity assay is shown in the table next to the compound under the corresponding A2A value.
The A2A receptor affinity binding assay measured the amount of binding of a tritiated ligand with high affinity for the A2A adenosine receptor to membranes made from HEK293 or CHO cells recombinantly expressing the human A2A adenosine receptor, in the presence of varying concentrations of a compound of the invention. The data were generated using either filtration binding or a homogenous scintillation proximity assay (SPA).
Method (A): Measurement of A2A Binding Affinity Using Radioligand Binding
148 μL (5 μg/mL) membranes (Perkin Elmer, Cat. No. RBHA2aM400UA) and 2 μL compounds of the invention to be tested (test compound) were transferred to individual wells of a 96-well polypropylene assay plate and incubated for 15 to 30 min at room temperature. [^3H] SCH58261 ((7-(2-phenylethyl)-5-amino-2-(2-furyl)-pyrazolo-[4,3-e]-1,2,4-triazolo[1,5-c]pyrimidine)) was diluted in assay buffer (50 mM Tris pH 7.4, 10 mM MgCl2, 0.005% Tween20) to a concentration of 4 nM and 50 μL transferred to each well of the assay plate. To define total and non-specific binding, wells containing 1% DMSO and 1 μM ZM241385 (Tocris Bioscience, Cat. No. 1036) respectively, were also included. The assay plate was incubated at room temperature for 60 min with agitation. Using a FilterMate Harvester® (Perkin Elmer), the contents of the assay plate were filtered through a UniFilter-96® PEI coated plate (Perkin Elmer Cat. No. 6005274 or 6005277). Filtering was achieved by aspirating the contents of the assay plate for 5 sec, then washing and aspirating the contents three times with ice-cooled wash buffer (50 mM Tris-HCl pH 7.4, 150 mM NaCl) and allowing the vacuum manifold to dry the plate for 30 sec. The filter plate was incubated for at least 1 h at 55° C. and allowed to dry. The bottom of the filter plate was sealed with backing tape. 40 μL Ultima Gold™ (Perkin Elmer, Cat. No. 6013329) was added to each well of the filter plate and the top of the plate was sealed with TopSeal-A PLUS® clear plate seal (Perkin Elmer, Cat. No. 6050185). The plate was incubated for at least 20 min, and then the amount of radioactivity remaining in each well was determined using a TopCount® (Perkin Elmer) scintillation counter. After normalization to total and non-specific binding, the percent effect at each compound concentration was calculated. The plot of percent effect versus the log of compound concentration was analyzed electronically using a 4-parameter logistic fit based on the Levenberg-Marquardt algorithm to generate IC50 values.

Chain of human A2A adenosine receptor (P29274 whole entry): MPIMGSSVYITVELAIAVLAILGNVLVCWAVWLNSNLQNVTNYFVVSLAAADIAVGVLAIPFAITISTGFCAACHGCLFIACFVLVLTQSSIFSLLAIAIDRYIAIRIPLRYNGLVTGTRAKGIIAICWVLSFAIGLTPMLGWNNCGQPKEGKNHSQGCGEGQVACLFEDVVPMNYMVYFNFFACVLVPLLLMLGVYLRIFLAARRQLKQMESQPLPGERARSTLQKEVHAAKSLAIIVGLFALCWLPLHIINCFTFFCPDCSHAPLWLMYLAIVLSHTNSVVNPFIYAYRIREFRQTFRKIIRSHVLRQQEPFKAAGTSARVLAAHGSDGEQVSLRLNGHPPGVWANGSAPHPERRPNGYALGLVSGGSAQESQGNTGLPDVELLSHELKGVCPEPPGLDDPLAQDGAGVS

| Compound | IC50 [nM] |
| --- | --- |
| Nc1nc2c(F)cc(F)cc2c2nc(CCC3CCn4c(cnc4C4CC(F)(F)C4)C3)nn12 (single isomer, unassigned) [Example 7.4A, (S or R)-2-(2-(3-(3,3-difluorocyclobutyl)-5,6,7,8-tetrahydroimidazo-[1,5-a]pyridin-7-yl)ethyl)-7,9-difluoro-[1,2,4]triazolo[1,5-c]-quinazolin-5-amine] | 31.6 |
| COc1cccc2c1nc(N)n1nc(CCOc3ccc(C(O)(C(F)(F)F)C(F)(F)F)cc3)nc21 [Example 9.1, 2-(4-(2-(5-amino-7-methoxy-[1,2,4]triazolo[1,5-c]quinazolin-2-yl)ethoxy)phenyl)-1,1,1,3,3,3-hexafluoropropan-2-ol] | 1.7 |
| COc1cc(F)cc2c1nc(N)n1nc(CCC3CCc4c(nnn4C4CC(F)(F)C4)C3)nc21 (single isomer, unassigned) [Example 7.6A, (S or R)-2-(2-(1-(3,3-difluorocyclobutyl)-4,5,6,7-tetrahydro-1H-benzo[d][1,2,3]triazol-5-yl)ethyl)-9-fluoro-7-methoxy-[1,2,4]-triazolo[1,5-c]quinazolin-5-amine] | 1 |
| COc1ccc(C2=COCCC2)c2c1nc(N)n1nc(CO)nc21 [Example 15.4, (5-amino-10-(3,4-dihydro-2H-pyran-5-yl)-7-methoxy-[1,2,4]triazolo[1,5-c]quinazolin-2-yl)methanol] | 2.7 |
| Nc1nc2c(F)cc(F)cc2c2nc(CCCS(=O)(=O)C3CC3)nn12 [Example 13.20, 2-(3-(cyclopropylsulfonyl)propyl)-7,9-difluoro-[1,2,4]triazolo[1,5-c]quinazolin-5-amine] | 34.2 |
| COc1cccc2c1nc(N)n1nc(CCC3CCc4c(nnn4C(C)C)C3)nc21 (single isomer, unassigned) [Example 5.2A, (S or R)-2-(2-(1-isopropyl-4,5,6,7-tetrahydro-1H-benzo[d][1,2,3]triazol-5-yl)ethyl)-7-methoxy-[1,2,4]triazolo[1,5-c]quinazolin-5-amine] | 0.7 |
| COc1cccc2c1nc(N)n1nc(CC3CC3c3ccc(C(C)(C)O)cc3)nc21 (single isomer, unassigned) [Example 8.6B, 2-(4-((1R,2S or 1S,2S)-2-((5-amino-7-methoxy-[1,2,4]triazolo-[1,5-c]quinazolin-2-yl)methyl)cyclopropyl)phenyl)propan-2-ol] | 0.3 |
| COc1cc(F)cc2c1nc(N)n1nc(Cc3cnn(CCC(C)(C)O)c3)nc21 [Example 16.5, 4-(4-((5-amino-9-fluoro-7-methoxy-[1,2,4]triazolo[1,5-c]-quinazolin-2-yl)methyl)-1H-pyrazol-1-yl)-2-methylbutan-2-ol] | 43.4 |
| COc1cccc2c1nc(N)n1nc(CC(C)(CO)CO)nc21 [Example 3.2, 2-((5-amino-7-methoxy-[1,2,4]triazolo[1,5-c]quinazolin-2-yl)methyl)-2-methylpropane-1,3-diol] | 10.9 |
| COc1ccc2c(c1)nc(N)n1nc(CCS(=O)(=O)C3CC3)nc21 [Example 13.6, 2-(2-(cyclopropylsulfonyl)ethyl)-8-methoxy-[1,2,4]triazolo[1,5-c]quinazolin-5-amine] | 8.2 |
| COc1cccc2c1nc(N)n1nc(CCS(=O)(=O)C3CC3)nc21 [Example 13.3, 2-(2-(cyclopropylsulfonyl)ethyl)-7-methoxy-[1,2,4]triazolo[1,5-c]quinazolin-5-amine] | 1.6 |
| COc1cccc2c1nc(N)n1nc(CCC3CCn4c(cnc4C4CC(F)(F)C4)C3)nc21 (single isomer, unassigned) [Example 7.5B, (R or S)-2-(2-(3-(3,3-difluorocyclobutyl)-5,6,7,8-tetrahydroimidazo-[1,5-a]pyridin-7-yl)ethyl)-7-methoxy-[1,2,4]triazolo[1,5-c]-quinazolin-5-amine] | 0.5 |
| COc1cccc2c1nc(N)n1nc(CC3CC3c3ccc(C(C)(C)N)cc3)nc21 (single isomer, unassigned) [Example 8.5A, 2-(((1S,2R or 1R,2S)-2-(4-(2-aminopropan-2-yl)phenyl)-cyclopropyl)methyl)-7-methoxy-[1,2,4]triazolo-[1,5-c]quinazolin-5-amine] | 4.7 |
| COc1cc(F)cc2c1nc(N)n1nc(CCC3CCc4c(nnn4C4CC(F)(F)C4)C3)nc21 (single isomer, unassigned) [Example 7.6B, (R or S)-2-(2-(1-(3,3-difluorocyclobutyl)-4,5,6,7-tetrahydro-1H-benzo[d][1,2,3]triazol-5-yl)ethyl)-9-fluoro-7-methoxy-[1,2,4]-triazolo[1,5-c]quinazolin-5-amine] | 4.2 |
| COc1cccc2c1nc(N)n1nc(CCC3CCc4nn(C(C)C)cc4C3)nc21 (single isomer, unassigned) [Example 7.2A, (S or R)-2-(2-(2-isopropyl-4,5,6,7-tetrahydro-2H-indazol-5-yl)ethyl)-7-methoxy-[1,2,4]triazolo[1,5-c]quinazolin-5-amine] | 2.5 |
| COc1cccc2c1nc(N)n1nc(CCC3CCc4c(cnn4C(C)C)C3)nc21 (single isomer, unassigned) [Example 7.8A, (S or R)-2-(2-(1-isopropyl-4,5,6,7-tetrahydro-1H-indazol-5-yl)-ethyl)-7-methoxy-[1,2,4]triazolo[1,5-c]quinazolin-5-amine] | 2.1 |
| COc1cc(F)cc2c1nc(N)n1nc(CCC3(O)CCc4c(nnn4C4CC(F)(F)C4)C3)nc21 (single isomer, unassigned) [Example 14.3B, (R or S)-5-(2-(5-amino-9-fluoro-7-methoxy-[1,2,4]triazolo[1,5-c]quinazolin-2-yl)ethyl)-1-(3,3-difluorocyclobutyl)-4,5,6,7-tetrahydro-1H-benzo[d][1,2,3]triazol-5-ol] | 3.4 |
| CCOC(=O)CCCn1cc(Cc2nc3c4cc(F)cc(OC)c4nc(N)n3n2)cn1 [Example 16.3, ethyl 4-(4-((5-amino-9-fluoro-7-methoxy-[1,2,4]triazolo[1,5-c]quinazolin-2-yl)methyl)-1H-pyrazol-1-yl)butanoate] | 14.9 |
| COc1cccc2c1nc(N)n1nc(COC3CCc4c(nnn4C4CC(F)(F)C4)C3)nc21 (single isomer, unassigned) [Example 2.2A, (S or R)-2-(((1-(3,3-difluorocyclobutyl)-4,5,6,7-tetrahydro-1H-benzo[d][1,2,3]triazol-5-yl)oxy)methyl)-7-methoxy-[1,2,4]triazolo[1,5-c]quinazolin-5-amine] | 3.4 |
| CN=S(=O)(CCc1nc2c3cccc(OC)c3nc(N)n2n1)C1CC1 (single isomer, unassigned) [Example 10.3A, (S or R)-(2-(5-amino-7-methoxy-[1,2,4]triazolo[1,5-c]quinazolin-2-yl)ethyl)(cyclopropyl)(methylimino)-l6-sulfanone] | 1.4 |
| COc1cccc2c1nc(N)n1nc(CCC3CCc4c(nnn4C4CC(F)(F)C4)C3)nc21 (single isomer, unassigned) [Example 5.3A, (S or R)-2-(2-(1-(3,3-difluorocyclobutyl)-4,5,6,7-tetrahydro-1H-benzo[d][1,2,3]triazol-5-yl)ethyl)-7-methoxy-[1,2,4]triazolo-[1,5-c]quinazolin-5-amine] | 0.9 |
| CC(C)(N)c1ccc([C@H]2C[C@@H]2Cc2nc3c4cc(F)cc(F)c4nc(N)n3n2)cc1 [Example 8.3B, 2-(((1R,2S)-2-(4-(2-aminopropan-2-yl)phenyl)cyclopropyl)methyl)-7,9-difluoro-[1,2,4]triazolo[1,5-c]quinazolin-5-amine] | 25.4 |
| COc1cc(F)cc2c1nc(N)n1nc(CCC3(O)CCc4c(nnn4C4CC(F)(F)C4)C3)nc21 (single isomer, unassigned) [Example 14.3A, (S or R)-5-(2-(5-amino-9-fluoro-7-methoxy-[1,2,4]triazolo[1,5-c]quinazolin-2-yl)ethyl)-1-(3,3-difluorocyclobutyl)-4,5,6,7-tetrahydro-1H-benzo[d][1,2,3]triazol-5-ol] | 1.1 |
| COc1cccc2c1nc(N)n1nc(CCS(=N)(=O)C3CC3)nc21 (single isomer, unassigned) [Example 11.1B, (R or S)-(2-(5-amino-7-methoxy-[1,2,4]triazolo[1,5-c]quinazolin-2-yl)ethyl)(cyclopropyl)(imino)-λ^6-sulfanone] | 3.4 |
